For data set [1], the system named is Human Immunodeficiency Virus type 1 (HIV) strain #237228 in human peripheral blood lymphocytes (PBLs). Put plainly: Anti-HIV-1 antiviral activity in acutely infected peripheral blood lymphocytes (CPE and RT activity). It is filed as cell-based, Human Immunodeficiency Virus type 1 (HIV); human cells. The settings on record: for IC100: Human immunodeficiency virus 1, 144 h, PBL cells, acute HIV-1 infection, day 6, concentration at which virus replication is inhibited (CPE negative or trace, >95% inhibition of RT activity); for antiviral index (Al), PBL cells: only non-toxic concentrations used, 8640 min. An excerpt:
(§1) The antiviral activity of representative compounds of the present invention has been determined at the Antivirals Laboratory, Fairfield Hospital, Fairfield, Victoria, Australia. In this test a stock solution of each compound was made in DMSO, then diluted in culture medium (RF 10) to 2× the final concentration required for test. The final concentration of DMSO was 1% or below. Approximately 250,000 continuous lymphocytes of human origin (MT2 cells) or 750,000 human peripheral blood lymphocytes (PBLs) were exposed to dilutions of each test compound, then immediately infected with Human Immunodeficiency Virus type 1 (HIV) strain #237228 (a clinical isolate obtained from a human source). The infectivity titers were expressed as tissue culture 50% infective dose (TCID50 per ml) with 1 TCID50 corresponding to the amount of supernatant required to infect 50% of the replicate cell cultures. The 250 and 200 TCID50 were used for MT2 and PBL cells respectively. The cell/drug/virus mixture was then incubated at 37° C./CO2 in a 24-well microtitre plate. Fresh amounts of the appropriate dilution of each drug were added to both MT2 and PBL cultures at day 3. At day 6, the extent of HIV-specific cytopathic effects (CPE) associated with each concentration of test compound in each of the cultures was rated according to the following scale:
(§2) 4+: 75-100% of cells showing 3+: good CPE
(§3) 3+: 50-75% of cells showing 2+: moderate CPE
(§4) 2+: 25-50% of cells showing 1+: low CPE
(§5) 1+: 5-25% of cells showing trace: minimal CPE
(§6) +/-: less than 5% CPE Negative: no CPE
(§7) The activity of the compounds at each concentration was also assessed by their ability to inhibit viron-associated reverse transcriptase (RT) activity in the culture supernates. At the time of rating of CPE, supernatant fluids from each well were removed and RT activity measured using a standard assay. CPE ratings of negative, ± (in MT2 cells) or trace (in PBLs), with greater than 95% inhibition of RT activity, was considered to represent IC100 (the concentration of compound at which the virus replication is inhibited). Control cultures included in each test were:
(§8) (a) HIV-infected cells in the absence of test compound.
(§9) (b) Uninfected cells in the absence of tested compound.
(§10) (c) Cell toxicity control consisting of uninfected cells treated with dilutions of test compound.
(§11) At the conclusion of each experiment, viable cells in these cultures, as determined by tryptan blue exclusion, were compared with the counts obtained in (b), above.

Data set [2] concerns Human Immunodeficiency Virus type 1 (HIV) strain #237228 in MT2 cells. Put plainly: Anti-HIV-1 antiviral activity in acutely infected MT2 cells (CPE and RT activity). The data set is classed as cell-based. As to conditions: for IC100: Human immunodeficiency virus 1, 144 h, acute HIV-1 infection, day 6, concentration at which virus replication is inhibited (CPE negative or ±, >95% inhibition of RT activity); for antiviral index (Al), MT2 cells: only non-toxic concentrations used, 8640 min.
Text: as §1, §2, §3, §4, §5, §6, §7, §8, §9, §10, §11

The next data set deals with HIV-1 protease (Human immunodeficiency virus type 1 group M subtype B, UniProt P04585). Put plainly: HIV-1 protease-inhibiting activity. The data set is classed as biochemical. As to conditions: half-maximal inhibition of HIV-1 protease. An excerpt: The HIV protease-inhibiting activity of representative compounds of the present invention has been tested by known methods (Brinkworth, R. I., et al., Biochem. Biophys. Res. Commun. 176, 241, (1991); McLeod, D. A., et al., Bioorganic & Medicinal Chemistry Letters (1991) 653-658).

A further data set concerns MT2 cells and PBLs. Put plainly: Toxicity to the cells (viable cells, trypan blue exclusion). The data set is classed as cell-based, human. The settings on record: compared to AZT (azidothymidine), in words.
Text: as §10, §11

This is an account of results in patent US6258806A, “Amine derivatives of oxo- and hydroxy- substituted hydrocarbons” (Narhex Limited, priority 1992, dated 2001).

As a reminder, the IC50 is the concentration needed to halve the response being measured. In the case of `CC(C)(C)OC(=O)N1CC2CCCCC2CN1CC(O)[C@H](Cc1ccccc1)NC(=O)[C@H](CC(N)=O)NC(=O)c1ccc2ccccc2n1` (stereo partly drawn) [Compound 2a, cis-1,6-3-t-Butoxycarbonyl-4-[(2RS,3S)-2-hydroxy-3-(N-quinaldyl-L-asparaginyl)amino-4-phenylbutyl]-3,4daza-bicylo[4.4.0]decane], in data set [1], the IC100 came out at 0.1 µM and the “antiviral index (Al), PBL cells” value is 100. Also, in data set [2], the IC100 was 0.1 µM and the “antiviral index (Al), MT2 cells” value is recorded as 50. The IC50 against HIV-1 protease stood at 5.4 ± 0.54 nM.

For `CC(C)N(C[C@@H](O)[C@H](Cc1ccccc1)NC(=O)[C@H](CC(N)=O)NC(=O)c1ccc2ccccc2n1)NC(=O)OC(C)(C)C` [Compound 7A, t-Butyl 3-Isopropyl-3-[(2R,3S)-2-hydroxy-3-(N-quinaldyl-L-asparaginyl)amino-4-phenylbutyl]carbazate], in data set [1], the IC100 turned out to be 1 µM and the “antiviral index (Al), PBL cells” value was found to be 25. For the same compound, in data set [2], the IC100 was found to be 1 µM and the “antiviral index (Al), MT2 cells” value stood at 50. The compound further displayed a half-inhibitory concentration (IC50) against HIV-1 protease of 7.3 ± 0.7 nM.

Consider `CC(C)N(C[C@H](O)[C@H](Cc1ccccc1)NC(=O)[C@H](CC(N)=O)NC(=O)c1ccc2ccccc2n1)NC(=O)OC(C)(C)C` [Compound 7B, t-Butyl 3-isogrooyl-3-[(2S, 3S)-2-hydroxy-3-(N-quinaldyl-L-asparaginyl)amino-4-phenylbutyl]carbazate], for which the “toxicity to the cells compared to AZT” value in the data set with MT2 cells and PBLs is listed as “lower toxicity to the cells”. In data set [1], the IC100 stood at 0.1 µM and the “antiviral index (Al), PBL cells” value was above 200. For the same compound, in data set [2], the IC100 stood at 0.1 µM and the “antiviral index (Al), MT2 cells” value was found to be 200. In addition, the IC50 against HIV-1 protease is below 3.5 nM.

As for `CC(C)N(C[C@@H](O)[C@H](Cc1ccccc1)NC(=O)[C@H](CC(N)=O)NC(=O)c1ccc2ccccc2n1)NC(=O)c1ccccc1NC(=O)OCc1ccccn1` [Compound 8, 1-(2-Pyridyl)methoxycarbonylanthranilyl-2-[(2R,3S)-2-hydroxy-3-(N-quinaldoyl-L-asparaginyl)amino4-phenylbutyl]-2-isopropyl-hydrazine], the “toxicity to the cells compared to AZT” value in the data set on MT2 cells and PBLs is on record as “lower toxicity to the cells”. For the same compound, in data set [1], the IC100 came to 0.1 µM and the “antiviral index (Al), PBL cells” value was above 100. Moreover, in data set [2], the IC100 came out at 0.1 µM and the “antiviral index (Al), MT2 cells” value was above 100.

Consider `CC(C)[C@H](NC(=O)OCc1ccccn1)C(=O)N[C@@H](Cc1ccccc1)C(O)CN1C2CCC(C2)N1C(=O)OC(C)(C)C` (stereo partly drawn) [Compound 10, 2-t-Butoxycarbonyl-3-[(2RS, 3S)-2-hydroxy-3-[N-(2-pyridyl)-methoxycarbonyl-L-valyl]amino-4-phenylbutyl]-2,3-diaza-bicyclo[2.2.1]-heptane], for which, in data set [2], the IC100 stood at 25 µM and the “antiviral index (Al), MT2 cells” value is 1. At HIV-1 protease, this compound registered an IC50 of 3300 ± 650 nM.

`CC(C)(C)OC(=O)N1Cc2ccccc2CN1CC(O)[C@H](Cc1ccccc1)NC(=O)[C@H](CC(N)=O)NC(=O)c1ccc2ccccc2n1` (stereo partly drawn) [Compound 11, 2-t-Butoxycarbonyl-3-[(2RS, 3S)-2-hydroxy-3-(N-quinaldyl-L-asparaginyl)amino-4-phenylbutyl]-1,2,3,4-tetrahydrophthalazine]: in data set [2], the IC100 amounted to 1 µM and the “antiviral index (Al), MT2 cells” value is above 10. The compound further displayed an IC50 against HIV-1 protease of 12.5 ± 3.2 nM.

With `CC(C)(C)OC(=O)NN(C[C@H](O)[C@H](Cc1ccccc1)NC(=O)[C@H](CC(N)=O)NC(=O)c1ccc2ccccc2n1)C1CCCCC1` [Compound 17, t-Butyl 3-cyclohexyl-3-[(2S,3S)-2-hydroxy-3-(N-quinaldyl-L-asparaginyl)amino-4-phenylbutyl]carbazate], the “toxicity to the cells compared to AZT” value in the data set on MT2 cells and PBLs was “lower toxicity to the cells”. Moreover, in data set [1], the IC100 stood at 0.1 µM and the “antiviral index (Al), PBL cells” value is given as 200. Further, in data set [2], the IC100 was 0.1 µM and the “antiviral index (Al), MT2 cells” value is on record as 100.
